# According to ChEMBL document CHEMBL1201862, “PubChem BioAssay data set” (2004):
# Activity calls are given as the source filed them.
# Legend:
# [1] = target: T1, High affinity choline transporter 1 (Homo sapiens, UniProt Q9GZV3); experiment: CHT inhibitors, dose response, cell-based, 5-point CRC, membrane potential dye (AID 504840); type: functional
# T1 sequence (Q9GZV3 whole entry): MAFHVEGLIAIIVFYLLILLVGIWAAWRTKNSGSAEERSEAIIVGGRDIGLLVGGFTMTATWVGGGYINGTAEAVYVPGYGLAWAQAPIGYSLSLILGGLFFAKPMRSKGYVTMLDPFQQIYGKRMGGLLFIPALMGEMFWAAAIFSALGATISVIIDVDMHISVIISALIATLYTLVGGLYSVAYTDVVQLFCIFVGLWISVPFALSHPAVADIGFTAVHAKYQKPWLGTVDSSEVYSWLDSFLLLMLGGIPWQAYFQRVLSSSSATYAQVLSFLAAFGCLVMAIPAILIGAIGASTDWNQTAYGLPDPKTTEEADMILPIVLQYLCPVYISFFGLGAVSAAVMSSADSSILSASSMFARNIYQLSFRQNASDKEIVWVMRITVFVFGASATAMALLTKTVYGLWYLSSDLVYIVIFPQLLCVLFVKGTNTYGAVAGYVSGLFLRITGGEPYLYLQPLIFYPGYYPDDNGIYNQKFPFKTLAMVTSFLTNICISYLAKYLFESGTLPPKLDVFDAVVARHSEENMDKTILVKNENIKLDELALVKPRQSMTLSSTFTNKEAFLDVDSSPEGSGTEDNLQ
# Exodeoxyribonuclease V = Exodeoxyribonuclease V (Escherichia coli (strain K12), UniProt P04993+P07648+P08394); experiment: E. coli RecBCD inhibitors, dose response, counter-screen for AddAB inhibitor project, absorbance, V66 E. coli, mutant T4 phage (AID 492957); type: functional, cell-based, Escherichia coli str. K-12 substr. MG1655
# [2] = Counterscreen for AddAB inhibitors: absorbance-based bacterial cell-based high throughput dose response assay for inhibitors of bacterial viability. [Related pubchem assays (depositor defined):AID435030, AID449728, AID449731, AID488942, AID488955, AID488956]; type: functional
# Estrogen receptor = target: T2, Estrogen receptor (Homo sapiens, UniProt P03372);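 further: potency for inhibiting coactivator peptide recruitment to the receptor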
# T2 sequence (P03372 whole entry): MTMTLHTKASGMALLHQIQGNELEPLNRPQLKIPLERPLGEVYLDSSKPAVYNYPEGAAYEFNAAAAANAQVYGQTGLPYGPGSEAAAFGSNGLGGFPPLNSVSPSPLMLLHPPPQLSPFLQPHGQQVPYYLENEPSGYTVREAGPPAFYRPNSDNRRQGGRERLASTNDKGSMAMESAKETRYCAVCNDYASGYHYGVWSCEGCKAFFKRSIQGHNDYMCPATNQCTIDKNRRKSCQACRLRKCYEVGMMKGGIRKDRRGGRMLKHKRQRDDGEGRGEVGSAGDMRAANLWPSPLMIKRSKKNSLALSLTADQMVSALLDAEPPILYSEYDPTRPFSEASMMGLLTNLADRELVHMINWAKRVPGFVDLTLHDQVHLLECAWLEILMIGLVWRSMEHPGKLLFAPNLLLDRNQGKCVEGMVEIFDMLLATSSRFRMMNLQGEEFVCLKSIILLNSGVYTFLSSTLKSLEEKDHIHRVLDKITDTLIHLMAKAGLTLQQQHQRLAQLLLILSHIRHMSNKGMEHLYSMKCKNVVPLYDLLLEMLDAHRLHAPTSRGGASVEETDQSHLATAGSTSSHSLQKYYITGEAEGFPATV
# Coagulation factor XII = target: T3, Coagulation factor XII (Homo sapiens, UniProt P00748); type: functional;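 further: activated factor XIIa alpha cleaving a fluorogenic AMC peptide substrate; inhibitor potency from loss of enzyme activity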
# T3 sequence (P00748 whole entry): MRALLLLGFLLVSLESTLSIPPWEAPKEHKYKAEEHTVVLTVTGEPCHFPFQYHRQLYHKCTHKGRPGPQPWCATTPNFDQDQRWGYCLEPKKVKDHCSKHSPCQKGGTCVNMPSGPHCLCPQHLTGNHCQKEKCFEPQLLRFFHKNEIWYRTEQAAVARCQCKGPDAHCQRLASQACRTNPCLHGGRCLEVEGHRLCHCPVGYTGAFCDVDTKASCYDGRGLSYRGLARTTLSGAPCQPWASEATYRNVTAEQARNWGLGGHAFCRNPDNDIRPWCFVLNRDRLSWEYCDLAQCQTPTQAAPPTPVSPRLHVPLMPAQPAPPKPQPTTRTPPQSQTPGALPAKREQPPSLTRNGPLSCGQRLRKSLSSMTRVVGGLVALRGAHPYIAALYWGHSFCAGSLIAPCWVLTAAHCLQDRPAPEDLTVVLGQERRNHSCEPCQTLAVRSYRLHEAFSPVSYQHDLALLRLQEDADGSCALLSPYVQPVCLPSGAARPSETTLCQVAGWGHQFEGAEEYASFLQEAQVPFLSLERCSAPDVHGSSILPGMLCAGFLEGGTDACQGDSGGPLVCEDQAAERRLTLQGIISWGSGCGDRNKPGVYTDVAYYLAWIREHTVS
# [3] = test system: Streptococcus sp. 'group A'; experiment: growth inhibition of control SK(-) GAS strain, dose response, counter-screen for streptokinase expression inhibitor project, luminescence, kanamycin, BacTiterGlo, confirmation (AID 1900); type: functional, organism-based
# Streptokinase A = target: T4, Streptokinase A (Streptococcus pyogenes serotype M1, UniProt P10520); experiment: S. pyogenes streptokinase expression inhibitors, potency, dose response, plasminogen activation absorbance, OD405 (AID 1914); type: functional, Streptococcus pyogenes M1 GAS;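 further: secreted streptokinase activity via plasminogen activation per viability signal from cell pellet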
# T4 sequence (P10520 whole entry): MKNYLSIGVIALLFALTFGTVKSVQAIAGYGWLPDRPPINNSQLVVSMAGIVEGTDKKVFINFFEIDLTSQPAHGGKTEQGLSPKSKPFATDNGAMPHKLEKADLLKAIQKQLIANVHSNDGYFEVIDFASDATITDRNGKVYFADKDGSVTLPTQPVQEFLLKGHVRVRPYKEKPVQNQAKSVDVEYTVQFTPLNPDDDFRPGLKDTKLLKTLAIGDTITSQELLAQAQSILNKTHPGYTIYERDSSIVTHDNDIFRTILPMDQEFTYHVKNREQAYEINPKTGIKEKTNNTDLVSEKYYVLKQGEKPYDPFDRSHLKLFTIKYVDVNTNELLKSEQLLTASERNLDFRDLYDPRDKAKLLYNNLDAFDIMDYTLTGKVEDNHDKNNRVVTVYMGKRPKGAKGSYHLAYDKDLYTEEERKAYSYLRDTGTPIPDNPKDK
# Streptococcus = experiment: Group A Streptococcus viability loss, dose response, counter-screen for streptokinase expression inhibitor project, luminescence, BacTiterGlo (AID 1915); type: functional, organism-based;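 further: potency for reduction of bacterial viability or growth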
# [4] = Luminescence Cell-Based Dose Retest to Confirm Inhibitors of Cancer Stem Cells. [Related pubchem assays (depositor defined):AID2717, AID2721]; type: functional; conditions: Homo sapiens
# [5] = target: Intestinal-type alkaline phosphatase (Mus musculus, UniProt P24822); experiment: PubChem AID 488785; type: functional
# [6] = target: T5, Alkaline phosphatase, tissue-nonspecific isozyme (Homo sapiens, UniProt P05186); experiment: TNAP enzyme inhibition by screening hits, dose response, selectivity assay for mouse IAP inhibitor project, biochemical, human TNAP, uHTS hits (AID 488906); type: functional
# T5 sequence (P05186 whole entry): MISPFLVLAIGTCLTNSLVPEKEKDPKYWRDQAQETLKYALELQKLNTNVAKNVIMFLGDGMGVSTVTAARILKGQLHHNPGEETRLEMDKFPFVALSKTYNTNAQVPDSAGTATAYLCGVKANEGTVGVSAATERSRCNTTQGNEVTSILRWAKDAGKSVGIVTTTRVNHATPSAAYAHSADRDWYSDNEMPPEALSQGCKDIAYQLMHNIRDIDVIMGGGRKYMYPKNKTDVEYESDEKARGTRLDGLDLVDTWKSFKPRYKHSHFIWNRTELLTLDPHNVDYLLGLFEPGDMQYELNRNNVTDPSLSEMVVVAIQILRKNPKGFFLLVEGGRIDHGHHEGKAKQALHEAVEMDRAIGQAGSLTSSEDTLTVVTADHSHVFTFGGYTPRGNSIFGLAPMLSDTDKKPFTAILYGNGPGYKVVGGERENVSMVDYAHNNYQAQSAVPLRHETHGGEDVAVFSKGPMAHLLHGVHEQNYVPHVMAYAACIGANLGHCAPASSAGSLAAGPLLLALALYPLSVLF
# [7] = target: Intestinal-type alkaline phosphatase (Homo sapiens, UniProt P09923); experiment: inhibition of human intestinal alkaline phosphatase – biochemical, dose response (AID 488876); type: functional
# Nonstructural protein 1 = Nonstructural protein 1 (Influenza A virus, UniProt Q194T2); type: functional, Influenza A virus (A/California/07/2009(H1N1))
# [8] = target: T6, Tyrosine-protein phosphatase non-receptor type 7 (Homo sapiens, UniProt P35236); experiment: redox-dependent HePTP inhibition, mechanism study, biochemical, fluorescence (AID 2068); type: functional
# T6 sequence (P35236 whole entry): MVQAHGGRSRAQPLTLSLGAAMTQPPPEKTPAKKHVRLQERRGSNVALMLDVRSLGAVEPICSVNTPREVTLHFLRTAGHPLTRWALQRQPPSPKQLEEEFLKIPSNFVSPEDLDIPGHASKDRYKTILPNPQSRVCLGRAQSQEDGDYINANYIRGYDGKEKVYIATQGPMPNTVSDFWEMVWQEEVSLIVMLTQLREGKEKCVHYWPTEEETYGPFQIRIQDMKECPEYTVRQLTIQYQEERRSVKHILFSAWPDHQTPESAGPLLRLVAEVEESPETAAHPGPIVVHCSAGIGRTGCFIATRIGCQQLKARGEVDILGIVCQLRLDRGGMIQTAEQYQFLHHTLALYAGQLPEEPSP
# [9] = target: T7, Dual specificity protein phosphatase 6 (Rattus norvegicus, UniProt Q64346); type: functional;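 further: confirmatory in vitro dose-response testing of MKP-3 inhibition; recombinant His-tagged MKP-3 made in E. coli BL21 with OMFP substrate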
# T7 sequence (Q64346 whole entry): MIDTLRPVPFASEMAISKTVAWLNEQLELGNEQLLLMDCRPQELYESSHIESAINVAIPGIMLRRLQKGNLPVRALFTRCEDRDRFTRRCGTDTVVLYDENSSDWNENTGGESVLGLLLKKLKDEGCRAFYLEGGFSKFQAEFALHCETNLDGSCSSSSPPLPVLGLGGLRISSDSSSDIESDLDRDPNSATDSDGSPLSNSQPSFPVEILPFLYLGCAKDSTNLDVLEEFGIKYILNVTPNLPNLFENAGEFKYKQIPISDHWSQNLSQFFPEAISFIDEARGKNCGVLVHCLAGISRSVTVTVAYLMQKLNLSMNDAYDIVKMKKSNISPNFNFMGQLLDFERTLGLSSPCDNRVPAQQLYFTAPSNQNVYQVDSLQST
# Vero = experiment: cells; type: functional, cell-based; conditions: Chlorocebus sabaeus
# Tumor necrosis factor = Tumor necrosis factor (Homo sapiens, UniProt P01375); experiment: TNFa-triggered NF-kB activation inhibitors, SAR follow-up, cell-based, revised (AID 2337); type: functional
# [10] = target: T8, Nucleotide-binding oligomerization domain-containing protein 1 (Homo sapiens, UniProt Q9Y239); experiment: NOD1 signaling inhibitors, SAR follow-up, revised (AID 2333); type: functional
# T8 sequence (Q9Y239 whole entry): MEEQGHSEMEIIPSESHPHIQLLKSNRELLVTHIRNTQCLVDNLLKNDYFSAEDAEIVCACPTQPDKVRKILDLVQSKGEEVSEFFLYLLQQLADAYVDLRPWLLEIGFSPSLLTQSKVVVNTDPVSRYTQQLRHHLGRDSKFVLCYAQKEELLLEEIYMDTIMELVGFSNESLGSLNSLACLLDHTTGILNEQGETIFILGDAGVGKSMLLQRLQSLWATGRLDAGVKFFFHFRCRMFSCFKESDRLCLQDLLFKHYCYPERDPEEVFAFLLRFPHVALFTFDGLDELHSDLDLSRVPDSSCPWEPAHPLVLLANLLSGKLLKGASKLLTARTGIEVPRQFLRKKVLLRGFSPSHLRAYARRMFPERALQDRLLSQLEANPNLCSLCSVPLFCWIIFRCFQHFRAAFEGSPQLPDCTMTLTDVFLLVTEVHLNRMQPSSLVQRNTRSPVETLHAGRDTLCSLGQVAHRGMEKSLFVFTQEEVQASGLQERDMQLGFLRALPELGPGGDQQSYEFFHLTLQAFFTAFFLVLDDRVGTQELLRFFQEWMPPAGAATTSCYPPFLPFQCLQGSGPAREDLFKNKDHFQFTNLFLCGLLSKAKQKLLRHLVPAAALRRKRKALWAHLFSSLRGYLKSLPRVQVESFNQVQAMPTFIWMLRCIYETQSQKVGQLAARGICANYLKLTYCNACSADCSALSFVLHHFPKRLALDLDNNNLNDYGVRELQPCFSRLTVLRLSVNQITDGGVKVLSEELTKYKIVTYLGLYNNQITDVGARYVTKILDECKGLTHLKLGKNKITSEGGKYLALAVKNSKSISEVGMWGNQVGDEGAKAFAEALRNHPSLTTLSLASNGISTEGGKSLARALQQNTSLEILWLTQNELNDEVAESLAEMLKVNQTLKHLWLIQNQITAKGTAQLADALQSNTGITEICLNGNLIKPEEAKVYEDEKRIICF
# HEK293 = experiment: cells; conditions: Homo sapiens;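 further: cells exposed to compound for 14 hours overnight before viability readout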
# 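Wherever AC50 is given: cells exposed to compound for roughly 70 hours or longer before luminescence read.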
# Chain of Intestinal-type alkaline phosphatase (Mus musculus, UniProt P24822) (P24822 whole entry): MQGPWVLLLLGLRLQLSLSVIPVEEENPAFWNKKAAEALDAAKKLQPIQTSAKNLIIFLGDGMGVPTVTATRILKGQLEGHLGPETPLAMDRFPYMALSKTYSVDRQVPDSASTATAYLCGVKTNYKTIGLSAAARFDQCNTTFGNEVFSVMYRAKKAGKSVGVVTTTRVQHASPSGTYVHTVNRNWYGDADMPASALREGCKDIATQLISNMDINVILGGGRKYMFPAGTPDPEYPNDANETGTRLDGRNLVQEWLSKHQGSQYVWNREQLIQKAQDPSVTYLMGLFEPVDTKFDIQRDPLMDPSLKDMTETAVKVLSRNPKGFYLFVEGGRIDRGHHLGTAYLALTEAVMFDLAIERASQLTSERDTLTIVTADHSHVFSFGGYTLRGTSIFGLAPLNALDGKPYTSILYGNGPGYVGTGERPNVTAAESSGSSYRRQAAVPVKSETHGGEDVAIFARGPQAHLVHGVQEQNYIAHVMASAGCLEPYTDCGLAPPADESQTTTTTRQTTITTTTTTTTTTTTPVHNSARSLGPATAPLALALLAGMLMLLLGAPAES
# Chain of Exodeoxyribonuclease V (P04993 whole entry): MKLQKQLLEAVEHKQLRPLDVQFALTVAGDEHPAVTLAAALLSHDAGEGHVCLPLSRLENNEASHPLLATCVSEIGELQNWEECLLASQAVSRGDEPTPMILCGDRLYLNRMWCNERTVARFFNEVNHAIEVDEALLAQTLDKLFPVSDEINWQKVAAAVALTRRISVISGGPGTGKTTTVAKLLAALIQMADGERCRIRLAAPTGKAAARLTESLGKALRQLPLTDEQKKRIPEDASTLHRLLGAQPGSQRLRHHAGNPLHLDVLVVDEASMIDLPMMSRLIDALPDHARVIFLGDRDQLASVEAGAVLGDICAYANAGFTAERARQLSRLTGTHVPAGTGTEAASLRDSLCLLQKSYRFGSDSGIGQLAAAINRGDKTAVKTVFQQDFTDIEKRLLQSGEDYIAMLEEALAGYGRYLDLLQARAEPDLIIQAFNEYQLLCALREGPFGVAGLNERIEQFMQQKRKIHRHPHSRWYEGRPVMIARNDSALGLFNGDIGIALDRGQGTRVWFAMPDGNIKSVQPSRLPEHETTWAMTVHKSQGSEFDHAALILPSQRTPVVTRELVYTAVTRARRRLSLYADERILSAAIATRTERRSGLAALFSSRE
# Chain of Exodeoxyribonuclease V (P07648 whole entry): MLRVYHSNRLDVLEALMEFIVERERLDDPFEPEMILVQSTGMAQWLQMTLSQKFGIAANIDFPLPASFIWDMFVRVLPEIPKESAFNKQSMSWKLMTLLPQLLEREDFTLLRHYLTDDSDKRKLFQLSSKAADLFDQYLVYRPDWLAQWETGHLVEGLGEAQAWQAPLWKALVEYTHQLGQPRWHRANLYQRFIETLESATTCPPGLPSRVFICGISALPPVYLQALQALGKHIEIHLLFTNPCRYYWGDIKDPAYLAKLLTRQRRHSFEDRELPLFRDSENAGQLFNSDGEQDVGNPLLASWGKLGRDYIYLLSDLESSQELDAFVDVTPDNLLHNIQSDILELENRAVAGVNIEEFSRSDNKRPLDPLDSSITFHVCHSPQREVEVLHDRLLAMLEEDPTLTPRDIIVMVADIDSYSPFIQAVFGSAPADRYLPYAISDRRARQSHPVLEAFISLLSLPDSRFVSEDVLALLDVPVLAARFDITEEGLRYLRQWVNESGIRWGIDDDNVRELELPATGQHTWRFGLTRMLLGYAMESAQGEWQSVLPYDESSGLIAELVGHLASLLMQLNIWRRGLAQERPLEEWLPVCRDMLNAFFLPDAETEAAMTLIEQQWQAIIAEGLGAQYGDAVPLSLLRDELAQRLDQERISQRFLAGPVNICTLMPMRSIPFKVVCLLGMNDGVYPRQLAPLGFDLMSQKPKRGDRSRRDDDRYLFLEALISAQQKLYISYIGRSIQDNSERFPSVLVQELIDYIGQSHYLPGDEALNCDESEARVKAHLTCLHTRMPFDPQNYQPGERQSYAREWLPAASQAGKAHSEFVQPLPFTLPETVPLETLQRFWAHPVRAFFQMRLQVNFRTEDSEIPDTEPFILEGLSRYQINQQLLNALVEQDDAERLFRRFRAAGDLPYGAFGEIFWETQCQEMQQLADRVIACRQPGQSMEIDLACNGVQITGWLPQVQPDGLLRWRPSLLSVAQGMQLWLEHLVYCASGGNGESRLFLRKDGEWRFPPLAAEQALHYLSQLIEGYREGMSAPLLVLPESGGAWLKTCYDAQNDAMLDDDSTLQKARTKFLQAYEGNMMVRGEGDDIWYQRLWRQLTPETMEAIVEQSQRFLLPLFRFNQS
# Chain of Exodeoxyribonuclease V (P08394 whole entry): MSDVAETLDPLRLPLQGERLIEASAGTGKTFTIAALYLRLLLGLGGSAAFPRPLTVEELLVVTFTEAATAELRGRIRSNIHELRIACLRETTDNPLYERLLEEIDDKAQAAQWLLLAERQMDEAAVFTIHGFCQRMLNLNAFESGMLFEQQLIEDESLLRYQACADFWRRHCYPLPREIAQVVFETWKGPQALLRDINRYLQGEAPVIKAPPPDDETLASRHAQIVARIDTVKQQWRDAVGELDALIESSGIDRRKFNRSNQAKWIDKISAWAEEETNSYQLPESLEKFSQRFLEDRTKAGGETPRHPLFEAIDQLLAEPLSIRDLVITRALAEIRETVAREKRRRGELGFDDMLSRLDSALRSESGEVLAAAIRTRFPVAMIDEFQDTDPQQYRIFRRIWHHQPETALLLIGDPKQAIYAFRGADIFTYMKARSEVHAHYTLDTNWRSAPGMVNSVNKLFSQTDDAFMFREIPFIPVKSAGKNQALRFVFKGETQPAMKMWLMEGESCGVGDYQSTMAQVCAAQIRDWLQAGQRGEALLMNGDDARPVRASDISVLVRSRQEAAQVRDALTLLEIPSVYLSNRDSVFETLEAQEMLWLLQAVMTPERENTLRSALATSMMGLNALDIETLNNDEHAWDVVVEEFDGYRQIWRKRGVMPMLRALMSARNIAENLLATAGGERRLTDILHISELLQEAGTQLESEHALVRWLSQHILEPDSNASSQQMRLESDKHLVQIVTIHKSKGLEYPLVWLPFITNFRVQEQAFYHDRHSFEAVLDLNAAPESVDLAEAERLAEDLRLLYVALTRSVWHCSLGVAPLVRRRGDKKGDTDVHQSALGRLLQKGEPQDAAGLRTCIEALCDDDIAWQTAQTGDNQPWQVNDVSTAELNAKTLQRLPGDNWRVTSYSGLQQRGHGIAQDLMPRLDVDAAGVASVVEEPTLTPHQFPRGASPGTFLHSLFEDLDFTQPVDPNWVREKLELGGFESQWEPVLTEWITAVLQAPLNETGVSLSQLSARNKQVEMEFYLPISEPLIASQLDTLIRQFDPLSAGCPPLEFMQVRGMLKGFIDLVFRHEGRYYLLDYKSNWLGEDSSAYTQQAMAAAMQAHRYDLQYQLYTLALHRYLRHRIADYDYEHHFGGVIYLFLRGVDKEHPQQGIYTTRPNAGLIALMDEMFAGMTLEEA
# Chain of Intestinal-type alkaline phosphatase (Homo sapiens, UniProt P09923) (P09923 whole entry): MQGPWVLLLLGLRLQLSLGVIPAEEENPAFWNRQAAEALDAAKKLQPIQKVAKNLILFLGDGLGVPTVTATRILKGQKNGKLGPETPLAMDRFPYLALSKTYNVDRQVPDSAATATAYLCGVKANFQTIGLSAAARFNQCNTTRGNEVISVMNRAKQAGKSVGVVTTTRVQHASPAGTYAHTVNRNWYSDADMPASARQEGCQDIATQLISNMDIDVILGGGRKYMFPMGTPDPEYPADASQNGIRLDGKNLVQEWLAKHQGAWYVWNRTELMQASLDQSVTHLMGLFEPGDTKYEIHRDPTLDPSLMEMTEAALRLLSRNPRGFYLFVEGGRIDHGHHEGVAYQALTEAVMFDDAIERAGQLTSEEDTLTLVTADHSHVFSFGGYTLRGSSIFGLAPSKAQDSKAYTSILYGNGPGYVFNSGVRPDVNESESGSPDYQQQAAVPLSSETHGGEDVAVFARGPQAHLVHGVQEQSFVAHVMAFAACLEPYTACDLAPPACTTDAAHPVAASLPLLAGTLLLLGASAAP
# Chain of Tumor necrosis factor (P01375 whole entry, the tested form may be a part): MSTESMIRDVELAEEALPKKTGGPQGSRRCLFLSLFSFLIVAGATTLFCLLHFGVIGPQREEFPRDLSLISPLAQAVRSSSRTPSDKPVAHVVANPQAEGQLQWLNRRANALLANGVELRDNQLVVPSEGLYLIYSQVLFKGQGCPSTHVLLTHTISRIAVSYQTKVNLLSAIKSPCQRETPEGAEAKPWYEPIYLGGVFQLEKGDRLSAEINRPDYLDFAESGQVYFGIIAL
# Chain of Nonstructural protein 1 (Q194T2 whole entry): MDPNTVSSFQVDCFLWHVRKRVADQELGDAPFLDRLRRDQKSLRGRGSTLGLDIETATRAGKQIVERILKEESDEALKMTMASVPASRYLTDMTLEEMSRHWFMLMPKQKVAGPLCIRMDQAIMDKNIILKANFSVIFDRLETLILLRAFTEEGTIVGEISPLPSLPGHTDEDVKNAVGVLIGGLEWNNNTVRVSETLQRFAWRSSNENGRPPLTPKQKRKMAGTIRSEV
structure (smiles),measurement,setting,value
CN(CCNC(=O)CN1CCN(Cc2ccccc2Cl)C1=O)Cc1ccccc1,IC50,[1],15.9 µM (active)
CCOc1ccc(NC(S)=NCc2nc3ccccc3[nH]2)cc1,IC50,Exodeoxyribonuclease V,> 119 µM (inactive)
same,IC50,[2],> 119 µM (inactive)
Cc1ccc(-c2nnc3n2N=C(c2ccc(Br)cc2)CS3)cc1,IC50,Estrogen receptor,42.3 µM (not active)
same,IC50,Coagulation factor XII,> 50 µM (inactive)
S=C(NCCC(c1ccccc1)c1ccccc1)Nc1cccc(Cl)c1,EC50,[3],3.81 µM (active)
same,EC50,Streptokinase A,15.3 µM (active)
same,EC50,Streptococcus,10.5 µM (active)
same,AC50,[4],2.27 µM (active)
same,IC50,[5],6.96 µM (active)
same,IC50,[6],22.9 µM (active)
same,IC50,[7],57.7 µM (active)
COc1cc(COCC(O)CN2CCOCC2)cc(OC)c1OC (stereo unspecified),IC50,Coagulation factor XII,> 50 µM (inactive)
COCc1ccc(CN2CCC(C(=O)Nc3cccc(-c4cccc(Cl)c4)c3)CC2)o1,IC50,[5],2.01 µM (active)
same,IC50,Nonstructural protein 1,> 100 µM (active)
same,IC50,[6],17.8 µM (active)
same,IC50,[7],> 100 µM (inactive)
COc1cc(C(=S)NC2CCCC2)ccc1O,IC50,[8],2.58 µM (active)
same,IC50,[9],> 100 µM (inactive)
C/C(=N/OCO/N=C(/C)c1ccc(F)cc1)c1ccc(F)cc1,IC50,Vero,> 12.5 µM (active)
C/C(=N\N=C(N)N)c1ccc(Cl)c(Cl)c1,IC50,[1],13.8 µM (active)
CCCCOc1ccc(Cc2cnc(N)nc2N)cc1,IC50,Exodeoxyribonuclease V,114 µM (inactive)
same,IC50,[2],85.2 µM (inactive)
Cc1ccc(-c2nc3ccccc3s2)cc1,IC50,Tumor necrosis factor,> 20 µM (inactive)
same,IC50,[10],> 20 µM (inactive)
same,IC50,HEK293,> 20 µM (inactive)
